Laboratory results from ChEMBL document CHEMBL1268985, “Syntheses of fluorescent imidazoquinoline conjugates as probes of Toll-like receptor 7” (Bioorg Med Chem Lett, 2010).
pEC50: −log10 of the molar value.

Tests used:
Toll-like receptor 7 = target: T1, Toll-like receptor 7 (Homo sapiens, UniProt Q9NYK1); assay: Agonist activity at human TLR7 expressed in HEK-Blue-7 cells assessed as increase in NF-kappaB activation by sAP assay; assay type: functional, cell-based
T1 sequence (Q9NYK1 whole entry): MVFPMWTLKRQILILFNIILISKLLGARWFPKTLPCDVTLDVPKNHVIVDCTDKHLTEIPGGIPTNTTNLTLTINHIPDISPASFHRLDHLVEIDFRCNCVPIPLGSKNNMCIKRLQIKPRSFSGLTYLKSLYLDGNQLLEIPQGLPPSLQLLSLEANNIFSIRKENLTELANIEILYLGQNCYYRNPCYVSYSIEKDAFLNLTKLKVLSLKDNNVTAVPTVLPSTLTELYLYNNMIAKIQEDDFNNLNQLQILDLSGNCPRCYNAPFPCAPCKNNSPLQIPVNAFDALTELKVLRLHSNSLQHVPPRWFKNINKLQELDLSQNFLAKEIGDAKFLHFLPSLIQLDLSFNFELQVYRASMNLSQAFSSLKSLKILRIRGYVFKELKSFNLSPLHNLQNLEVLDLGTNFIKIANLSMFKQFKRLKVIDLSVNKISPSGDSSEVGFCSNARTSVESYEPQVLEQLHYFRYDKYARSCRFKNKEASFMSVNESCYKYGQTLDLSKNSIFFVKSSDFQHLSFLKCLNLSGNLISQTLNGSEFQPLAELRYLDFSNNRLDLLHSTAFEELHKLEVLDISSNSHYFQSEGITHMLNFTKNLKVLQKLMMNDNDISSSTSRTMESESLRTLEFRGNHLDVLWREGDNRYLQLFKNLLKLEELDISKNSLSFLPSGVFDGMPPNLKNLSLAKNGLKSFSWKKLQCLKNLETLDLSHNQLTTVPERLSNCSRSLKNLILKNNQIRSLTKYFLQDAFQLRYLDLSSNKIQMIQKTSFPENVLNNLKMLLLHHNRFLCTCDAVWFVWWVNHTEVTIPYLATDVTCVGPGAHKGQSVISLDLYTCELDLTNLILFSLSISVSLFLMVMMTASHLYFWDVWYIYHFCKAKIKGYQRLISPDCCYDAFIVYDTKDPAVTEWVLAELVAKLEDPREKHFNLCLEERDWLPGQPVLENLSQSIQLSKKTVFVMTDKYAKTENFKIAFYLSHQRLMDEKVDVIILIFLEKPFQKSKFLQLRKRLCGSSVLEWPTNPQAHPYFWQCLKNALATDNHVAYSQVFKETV

[1] = Drug uptake in human CD3-/CD56+ natural killer cells treated for 30 mins by flow cytometry; assay type: ADME; conditions: nk cell, 0.5 h
[2] = Drug uptake in human CD3-/CD56- B lymphocytes treated for 30 mins by flow cytometry; assay type: ADME, cell-based; conditions: b-cell, 0.5 h
[3] = Drug uptake in human CD3+/CD56- T lymphocytes treated for 30 mins by flow cytometry; assay type: ADME, cell-based; conditions: t-cell, 0.5 h
[4] = Drug uptake in mouse J774.1 cells assessed as perinuclear localization at 100 nM by confocal fluorescence microscopy; assay type: ADME, cell-based; conditions: j774.1, 0.1 µM

| SMILES | pEC50 (Toll-like receptor 7) | Drug uptake [1] | Drug uptake [2] | Drug uptake [3] | Drug uptake [4] |
| --- | --- | --- | --- | --- | --- |
| CCCCc1nc2c(N)nc3ccccc3c2n1Cc1ccc(CNC(=S)Nc2ccc(-c3c4ccc(=[N+](CC)CC)cc-4oc4cc(N(CC)CC)ccc34)c(C(=O)O)c2)cc1 | 6.94 |  |  |  |  |
| CCCCc1nc2c(N)nc3ccccc3c2n1Cc1ccc(CNC(=S)Nc2cccc(-c3c4ccc(=O)cc-4oc4cc(O)ccc34)c2C(=O)O)cc1 | 6.61 | Active | Active | Active |  |
| CCCCc1nc2c(N)nc3ccccc3c2n1Cc1cccc2ccccc12 | 6.40 |  |  |  |  |
| CCCCc1nc2c(N)nc3ccccc3c2n1Cc1ccc(CNC(=S)NCCCCCNC(=O)COc2ccc(C3=[N+]4C(=Cc5ccc(-c6cccs6)n5[B-]4(F)F)C=C3)cc2)cc1 | 6.97 |  |  |  | Active |
